The source made the active and inactive calls. The rule behind the calls is not given here.
Assays:
Format in all cases: functional
Rattus norvegicus [1] = test: Antiimplantation activity against Sprague-Dawley albino rat at 1 mg/kg, po administered for 1-5 days measured on day 10 of pregnancy relative to control
Rattus norvegicus [2] = test: Antiimplantation activity against Sprague-Dawley albino rat at 1.25 mg/kg, po administered for 1-5 days measured on day 10 of pregnancy relative to control
Rattus norvegicus [3] = test: Antiimplantation activity against Sprague-Dawley albino rat at 10 mg/kg, po administered for 1-5 days measured on day 10 of pregnancy relative to control
Rattus norvegicus [4] = test: Antiimplantation activity against Sprague-Dawley albino rat at 5 mg/kg, po administered for 1-5 days measured on day 10 of pregnancy relative to control
Rattus norvegicus [5] = test: Antiimplantation activity against Sprague-Dawley albino rat at 2.5 mg/kg, po administered for 1-5 days measured on day 10 of pregnancy relative to control
Rattus norvegicus [6] = test: Antiimplantation activity against Sprague-Dawley albino rat at 2 mg/kg, po administered for 1-5 days measured on day 10 of pregnancy relative to control
Rattus norvegicus [7] = test: Antiimplantation activity against Sprague-Dawley albino rat at 1.5 mg/kg, po administered for 1-5 days measured on day 10 of pregnancy relative to control

| Structure (SMILES) | Activity (Rattus norvegicus [1]) | Activity (Rattus norvegicus [2]) | Activity (Rattus norvegicus [3]) | Activity (Rattus norvegicus [4]) | Activity (Rattus norvegicus [5]) | Activity (Rattus norvegicus [6]) | Activity (Rattus norvegicus [7]) |
| --- | --- | --- | --- | --- | --- | --- | --- |
| CCC1(O)C[C@]2(C)[C@@H](O)CC[C@H]2C2=C1c1ccc(OC)cc1CC2 (stereo partly specified) | 50% | 100% | 100% | 100% | 100% |  |  |
| COc1ccc2c(c1)OC(C)(C)C(c1ccccc1)C2c1ccc(OCCN2CCCC2)cc1 (stereo unspecified) [ORMELOXIFENE] | 100% |  | 100% |  |  |  |  |
| COc1ccc2c(c1)CCC1=C2C(O)(Cc2ccccc2)C[C@]2(C)[C@@H](O)CC[C@@H]12 (stereo partly specified) |  |  | 100% |  |  |  |  |
| C=CCC1=C[C@]2(C)[C@@H](O)CC[C@H]2C2=C1c1ccc(OC)cc1CC2 |  |  | 100% |  |  |  |  |
| COc1ccc2c(c1)CCC1=C2C(C)(O)C[C@]2(C)[C@@H](O)CC[C@@H]12 (stereo partly specified) |  |  | 100% | 100% |  | 100% |  |
| C=CCC1(O)C[C@]2(C)[C@@H](OC(C)=O)CC[C@H]2C2=C1c1ccc(OC)cc1CC2 (stereo partly specified) |  |  | 100% |  |  |  |  |
| COc1ccc2c(c1)CCC1=C2C(=O)C[C@]2(C)[C@@H](O)CC[C@@H]12 |  |  | 100% | 100% |  | inactive |  |
| C=CCC1(O)C[C@]2(C)[C@@H](O)CC[C@H]2C2=C1c1ccc(OC)cc1CC2 (stereo partly specified) | 60% |  | 100% | 100% |  | 100% | 60% |
